# Laboratory results published in publication PMC10535864, “Novel Aminopyrimidine-2,4-diones, 2-Thiopyrimidine-4-ones, and 6-Arylpteridines as Dual-Target Inhibitors of BRD4/PLK1: Design, Synthesis, Cytotoxicity, and Computational Studies” (Pharmaceuticals, 2023).
# Like-named read-outs stand apart in the source and are kept apart here.
# Assays:
# BRD4 (BD2) = biological target: T1, BRD4 (BD2) (Homo sapiens, UniProt O60885); assay: BRD4 inhibitory activity assay (AlphaLISA Bromodomain Assay); assay type: binding; details: for %inh: BRD4 Lab Report;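 as to all read-outs here: in vitro inhibition of recombinant BRD4 BD2 bromodomain binding to a BET bromodomain ligand, read by AlphaLISA proximity signal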
# T1 construct: BRD4 (BD2) should be thawed on ice; purchased
# [1] = MTT cytotoxicity assay, normal Vero cells; assay type: cell-based; details: African green monkey, normal Vero cells, MTT
# normal Vero cells = assay: MTT cytotoxicity assay, normal Vero cells; assay type: cell-based; details: Vero; for Toxicity %: MTT
# [2] = test system: MDA-MB-231 breast cancer cells; assay: MTT cytotoxicity assay, MDA-MB-231; assay type: cell-based
# How it was run: (§1)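 Cells seeded at 1 X 10^5 cells/mL and grown 24 h at 37°C to a monolayer, then exposed to two-fold compound dilutions in RPMI with 2% serum, six doses. MTT added for 4 h at 37°C, formazan dissolved in DMSO, OD read at 560 nm minus 620 nm background. IC50 from dose-response.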
# [3] = MTT cytotoxicity assay, U-937; assay type: cell-based; details: Homo sapiens, U-937, U937, MTT;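 also: Six-dose MTT colorimetric assay on cell monolayers, formazan absorbance read at 560 nm with 620 nm background removed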
# Method: (§2) All newly synthetic compounds were tested for cytotoxicity using a six-dose MTT colorimetric assay on three cancer cell lines; namely, breast cancer cells (MDA-MB-231), colorectal adenocarcinoma cells (HT-29) and renal cancer cells (U-937).
# (§3) Using a six-dose MTT colorimetric assay [44, 66], all new synthetic compounds were tested for cytotoxicity against three cancer cell lines: MDA-MB-231 breast cancer cells, HT-29 colorectal adenocarcinoma cells, and U-937 renal cancer cells. […] These cell lines were supplied by ATCC (American Type Culture Collection) via the Holding company for biological products and vaccines (VACSERA, Cairo, Egypt). The reference control used was Methotrexate.
# (§4) Using a six-dose MTT colorimetric assay [44, 66], allnew synthetic compounds were tested for cytotoxicity against three cancer cell lines: MDA-MB-231 breast cancer cells,HT-29 colorectal adenocarcinoma cells, and U-937 renal
# (§5) The cell lines were supplied by ATCC (American Type Culture Collection). The reference control used was Methotrexate. The cytotoxic activities of the examined compounds were quantified by inoculating a 96-well tissue culture plate with 1 X 10^5 cells / mL (100 uL/well) and incubating it at 37°C for 24 hours to develop a complete monolayer sheet. After forming a confluent sheet of cells, the growth medium was decanted from 96-well microtiter plates, and the cell monolayer was washed twice with wash media. Two-fold dilutions of tested samples were made in RPMI medium with 2% serum (maintenance medium), and 0.1 mL of each dilution was tested in different wells, with three wells serving as controls and receiving only maintenance medium. Following that, the plate was incubated at 37°C and examined. Cells were investigated for any physical signs of toxicity, such as partial or complete monolayer loss, rounding, shrinkage, or cell granulation. MTT solution was prepared (5mg/ml in PBS) (BIO BASIC CANADA INC), and 20 uL MTT solution was added to each well. After 5 minutes on a shaking table at150 rpm to thoroughly mix the MTT into the media, it was incubated (37C, 5% CO2) for 4 hours to allow the MTT to be metabolized. Formazan (MTT metabolic product) was resuspended in 200 uL DMSO and shaken at 150 rpm for 5 minutes to thoroughly mix the formazan into the solvent. The optical density was measured at 560 nm, and the background was subtracted at 620 nm. Finally, the IC50 of the test compound in comparison to the reference was calculated using the GraphPad Prism software.
# U-937 renal cancer cells = assay: MTT cytotoxicity assay, U-937; assay type: cell-based; details: for IC50: Homo sapiens, U-937;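 as to all read-outs here: Six-dose MTT colorimetric assay on cell monolayers, formazan absorbance read at 560 nm with 620 nm background removed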
# Method: as §2, §3, §4, §5
# [4] = test system: HT-29 colorectal adenocarcinoma cells; assay: MTT cytotoxicity assay, HT-29; assay type: cell-based
# How it was run: as §1
# human recombinant PLK1 = human recombinant PLK1 (Homo sapiens, UniProt P53350); assay: PLK1 inhibitory activity assay (ADP-Glo Kinase Assay); assay type: biochemical; details: for %inh: PLK1 Lab Report
# Method: The BRD4 and PLK1 inhibitory assays were carried out in vitro in accordance with the manufacturer’s instructions; BRD4 was assessed using AlphaLISA Bromodomain Assay Protocol, and PLK1 kinase was tested using the ADP-Glo™ Kinase Assay Protocol, as detailed in the Supplementary file. […]
# 1.2.2. PLK1 inhibitory activity assay
# The kinase reaction was performed with active human recombinant PLK1 and combined with the substrate dephosphorylated casein (positive control) using 1 X reaction buffer (40 mM Tris-HCl pH 7.4, 20 mM MgCl2, 0.1 mg/mL BSA, 1 mM DTT) and 20 μM ATP. The reaction was incubated at30°C for 45 minutes. The amount of ATP transferred was calculated using […] reagent from Promega according to the manufacturer’s instruction.
# A plate-reading luminometer isused to measure the luminescence. […]
# [5] = SI = IC50 normal cells (Vero)/IC50 cancer cells
# Sequence of human recombinant PLK1 (P53350 whole entry): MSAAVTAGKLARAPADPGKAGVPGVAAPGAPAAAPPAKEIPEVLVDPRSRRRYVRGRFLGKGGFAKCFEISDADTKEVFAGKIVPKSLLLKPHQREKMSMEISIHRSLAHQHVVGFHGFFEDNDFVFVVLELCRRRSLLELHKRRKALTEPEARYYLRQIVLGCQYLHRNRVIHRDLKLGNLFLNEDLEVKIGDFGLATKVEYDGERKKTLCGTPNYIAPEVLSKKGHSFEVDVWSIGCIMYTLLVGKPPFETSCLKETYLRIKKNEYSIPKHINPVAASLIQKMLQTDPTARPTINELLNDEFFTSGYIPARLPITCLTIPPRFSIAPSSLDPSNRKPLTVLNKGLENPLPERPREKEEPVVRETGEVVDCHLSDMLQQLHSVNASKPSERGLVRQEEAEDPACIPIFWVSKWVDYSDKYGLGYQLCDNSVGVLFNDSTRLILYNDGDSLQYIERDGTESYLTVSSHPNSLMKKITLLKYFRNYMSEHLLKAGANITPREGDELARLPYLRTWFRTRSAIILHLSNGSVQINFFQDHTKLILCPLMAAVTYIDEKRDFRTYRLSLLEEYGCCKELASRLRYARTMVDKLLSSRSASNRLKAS
structure (smiles),measurement,setting,value
"CCn1c(N)c(/N=C(/CBr)c2ccc(OC)cc2)c(=O)[nH]c1=O [Compound 6a, (E)-6-Amino-5-((2-bromo-1-(4-methoxyphenyl)ethylidene)amino)-1-ethylpyrimidine-2,4(1H,3H)-dione]",%inh,BRD4 (BD2); conc 0.01 (unit not given),34%
same,%inh,BRD4 (BD2); conc 0.1 (unit not given),49%
same,%inh,BRD4 (BD2); conc 1 (unit not given),73%
same,%inh,BRD4 (BD2); conc 10 (unit not given),88%
same,%inh,BRD4 (BD2); conc 100 (unit not given),95%
same,IC50,"BRD4 (BD2); mean of three independent experiments, read-out: BRD4 IC50 ± SD",141 ± 6 nM
same,IC50,"[1]; mean of three independent experiments ± SD, read-out: In Vitro Cytotoxicity against Normal Cells IC50 Value, Vero Cells",2060 ± 30 nM
same,viability at 0.312 µM,"[1]; Vero, 0.312 uM",99.8%
same,viability at 0.625 µM,"[1]; Vero, 0.625 uM",99.2%
same,viability at 1.25 µM,"[1]; Vero, 1.25 uM",83.6%
same,viability at 2.5 µM,"[1]; Vero, 2.5 uM",26.8%
same,viability at 5 µM,"[1]; Vero, 5 uM",11.6%
same,viability at 10 µM,"[1]; Vero, 10 uM",4.59%
same,IC50,"normal Vero cells; Chlorocebus sabaeus, supplement viability lab report",1950 nM
same,Toxicity %,normal Vero cells; 0.312 uM,0.1996%
same,Toxicity %,normal Vero cells; 0.625 uM,0.7585%
same,Toxicity %,normal Vero cells; 1.25 uM,16.37%
same,Toxicity %,normal Vero cells; 2.5 uM,73.21%
same,Toxicity %,normal Vero cells; 5 uM,88.38%
same,Toxicity %,normal Vero cells; 10 uM,95.41%
same,IC50,"[2]; Homo sapiens, MDA-MB-231, MTT, mean of three independent experiments ± SD, read-out: IC50 Value MDA-MB-231",630 ± 10 nM
same,viability at 0.312 µM,"[2]; Homo sapiens, MDA-MB-231, MTT, 0.312 uM",100%
same,viability at 0.625 µM,"[2]; Homo sapiens, MDA-MB-231, MTT, 0.625 uM",98.9%
same,viability at 1.25 µM,"[2]; Homo sapiens, MDA-MB-231, MTT, 1.25 uM",27.1%
same,viability at 2.5 µM,"[2]; Homo sapiens, MDA-MB-231, MTT, 2.5 uM",5.98%
same,viability at 5 µM,"[2]; Homo sapiens, MDA-MB-231, MTT, 5 uM",3.37%
same,viability at 10 µM,"[2]; Homo sapiens, MDA-MB-231, MTT, 10 uM",4.03%
same,IC50,"[2]; Homo sapiens, supplement viability lab report, MDA-MB-231, read-out: IC50 ± SD",1000 nM
same,Toxicity %,"[2]; MDA-MB-231, MTT, 0.312 uM",0.04433%
same,Toxicity %,"[2]; MDA-MB-231, MTT, 0.625 uM",1.064%
same,Toxicity %,"[2]; MDA-MB-231, MTT, 1.25 uM",72.92%
same,Toxicity %,"[2]; MDA-MB-231, MTT, 2.5 uM",94.02%
same,Toxicity %,"[2]; MDA-MB-231, MTT, 5 uM",96.63%
same,Toxicity %,"[2]; MDA-MB-231, MTT, 10 uM",95.97%
same,Selectivity Indices (SI) MDA-MB-231,"[2]; SI = IC50 normal cells (Vero)/IC50 cancer cells, ≥5 highly, >2 moderately, <2 non-selective",3.27
same,viability at 0.312 µM,[3]; 0.312 uM,99.1%
same,viability at 0.625 µM,[3]; 0.625 uM,96.1%
same,viability at 1.25 µM,[3]; 1.25 uM,40.3%
same,viability at 2.5 µM,[3]; 2.5 uM,14.5%
same,viability at 5 µM,[3]; 5 uM,13.2%
same,viability at 10 µM,[3]; 10 uM,9.91%
same,IC50,"U-937 renal cancer cells; MTT, mean of three independent experiments ± SD, read-out: IC50 Value U-937",970 ± 10 nM
same,IC50,"U-937 renal cancer cells; supplement viability lab report, U937, read-out: IC50 ± SD",1120 nM
same,Selectivity Indices (SI) U-937,U-937 renal cancer cells; [5],2.12
same,Toxicity %,"U-937 renal cancer cells; U937, MTT, 0.312 uM",0.8715%
same,Toxicity %,"U-937 renal cancer cells; U937, MTT, 0.625 uM",3.867%
same,Toxicity %,"U-937 renal cancer cells; U937, MTT, 1.25 uM",59.69%
same,Toxicity %,"U-937 renal cancer cells; U937, MTT, 2.5 uM",85.46%
same,Toxicity %,"U-937 renal cancer cells; U937, MTT, 5 uM",86.76%
same,Toxicity %,"U-937 renal cancer cells; U937, MTT, 10 uM",90.09%
same,Toxicity %,"[4]; HT29, MTT, 0.312 uM",0.3876%
same,Toxicity %,"[4]; HT29, MTT, 0.625 uM",0.04307%
same,Toxicity %,"[4]; HT29, MTT, 1.25 uM",26.57%
same,Toxicity %,"[4]; HT29, MTT, 2.5 uM",89.88%
same,Toxicity %,"[4]; HT29, MTT, 5 uM",95.95%
same,Toxicity %,"[4]; HT29, MTT, 10 uM",95.74%
same,viability at 0.312 µM,"[4]; Homo sapiens, HT-29, HT29, MTT, 0.312 uM",99.6%
same,viability at 0.625 µM,"[4]; Homo sapiens, HT-29, HT29, MTT, 0.625 uM",100%
same,viability at 1.25 µM,"[4]; Homo sapiens, HT-29, HT29, MTT, 1.25 uM",73.4%
same,viability at 2.5 µM,"[4]; Homo sapiens, HT-29, HT29, MTT, 2.5 uM",10.1%
same,viability at 5 µM,"[4]; Homo sapiens, HT-29, HT29, MTT, 5 uM",4.05%
same,viability at 10 µM,"[4]; Homo sapiens, HT-29, HT29, MTT, 10 uM",4.26%
same,IC50,"[4]; Homo sapiens, HT-29, MTT, mean of three independent experiments ± SD, read-out: IC50 Value HT-29",750 ± 10 nM
same,IC50,"[4]; Homo sapiens, HT-29, supplement viability lab report, HT29, read-out: IC50 ± SD",1690 nM
same,Selectivity Indices (SI) HT-29,[4]; [5],2.75
same,%inh,human recombinant PLK1; conc 0.01 (unit not given),25%
same,%inh,human recombinant PLK1; conc 0.1 (unit not given),42%
same,%inh,human recombinant PLK1; conc 1 (unit not given),65%
same,%inh,human recombinant PLK1; conc 10 (unit not given),87%
same,%inh,human recombinant PLK1; conc 100 (unit not given),94%
same,IC50,"human recombinant PLK1; mean of three independent experiments, read-out: PLK1 IC50 ± SD",218 ± 10 nM
